The source of these data is the NIST ThermoML archive (doi:10.1021/je3012452).

For data set [1] the following is noted: DTA.
A short description of data set [2]: Molar enthalpy of transition or fusion. Conditions: DSC.

± gives the expanded uncertainty stated by the source.

In the case of `CC(C)C(N)=O` [2-methylpropanamide], in data set [1] (Crystal), the Normal melting temperature turned out to be 128.5 ± 0.9 °C. Further, the “Molar enthalpy of transition or fusion” value in data set [2] (Crystal) came to 4.76 ± 0.12 kcal/mol.

With `CCCC(CCC)C(N)=O` [2-propylpentanamide], the Normal melting temperature in data set [1] (Crystal 1) turned out to be 125.1 ± 0.5 °C. Further, the Triple point temperature in data set [1] (Crystal 2) is listed as 360.6 ± 0.9 K. For the same compound, the “Molar enthalpy of transition or fusion” value in data set [2] (Crystal 1) worked out at 5.38 ± 0.311 kcal/mol; in data set [2] (Crystal 2), 0.418 ± 0.105 kcal/mol.

As to `CCCCCCC(N)=O` [heptanamide], the Normal melting temperature in data set [1] (Crystal 1) came to 95.5 ± 1.1 °C. Moreover, the Triple point temperature in data set [1] (Crystal 2) came out at 356.1 ± 0.5 K; in data set [1] (Crystal 3), 319 ± 1.6 K. For the same compound, the “Molar enthalpy of transition or fusion” value stood at 3.87 ± 0.12 kcal/mol in data set [2] (Crystal 1), 0.813 ± 0.0478 kcal/mol in data set [2] (Crystal 2) and 1.79 ± 0.143 kcal/mol in data set [2] (Crystal 3).

Consider `CCCCCC(N)=O` [hexanamide], for which, in data set [1] (Crystal 1), the Normal melting temperature was determined as 99.2 ± 2.8 °C. Also, the Triple point temperature in data set [1] (Crystal 2) amounted to 306.1 ± 0.5 K. Also, the “Molar enthalpy of transition or fusion” value was 4.02 ± 0.167 kcal/mol in data set [2] (Crystal 1) and 1.22 ± 0.0717 kcal/mol in data set [2] (Crystal 2).
